In the supplement of paper PMC4862054:

What was measured:
Conditions in all cases: incubation time: 72 h
CAL-85-1 [1] = test: drug sensitivity score (DSS), CellTiter-Blue viability (DSS (AUC-based score)); higher = stronger viability inhibition; extreme values may be limits of the assay
Outline: (§1)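 Into 384-well plates carrying compound in a 5- or 9-concentration series went 20 µl of breast cancer cell suspension, followed by 72 h of incubation. Adding 2.5 µl CellTiter-Blue per well and incubating 2 h at 37 °C preceded fluorescence measurement at 560/590 nm. After normalisation of each plate to 0.1 % DMSO and a positive kill control, dose-response curves were fitted and the area beneath them taken as the drug sensitivity score.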

Hs578T [2] = test: as above
Outline: as §1

CAL-148 [3] = test: as above
Outline: as §1

MFM-223 [4] = test: as above
Outline: as §1

HDQ-P1 [5] = test: as above
Outline: as §1

MDA-MB-453 [6] = test: as above
Outline: as §1

HCC1599 [7] = test: as above
Outline: as §1

CAL-120 [8] = test: as above
Outline: as §1

SK-BR-3 = test: as above
Outline: as §1

DU-4475 [9] = test: as above
Outline: as §1

MDA-MB-468 [10] = test: as above
Outline: as §1

CAL-85-1 [11] = test: drug sensitivity score (DSS), CellTiter-Glo (DSS (AUC-based score)); higher = stronger drug effect (viability inhibition or cytotoxicity); extreme values may be limits of the assay
Outline: (§2)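 Breast cancer cell lines, seeded as 20 µl suspension, were incubated 72 h with compound in 384-well plates at 5 concentrations in 10-fold steps over a 10,000-fold range set for each compound. Fluorescence from CellTox Green was read at 485/520 nm before CellTiter-Glo luminescence, which was read after 10 min at room temperature. Every plate was normalised to 0.1 % DMSO and a positive kill control, and the drug sensitivity score was taken from the area under the fitted dose-response curve.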

Hs578T [12] = test: as above
Outline: as §2

HCC1143 = test: as above
Outline: as §2

CAL-148 [13] = test: as above
Outline: as §2

MDA-MB-436 = test: as above
Outline: as §2

BT-474 = test: as above
Outline: as §2

MFM-223 [14] = test: as above
Outline: as §2

HDQ-P1 [15] = test: as above
Outline: as §2

MCF-10A = test: as above
Outline: as §2

CAL-51 = test: as above
Outline: as §2

MDA-MB-453 [16] = test: as above
Outline: as §2

HCC1599 [17] = test: as above
Outline: as §2

CAL-120 [18] = test: as above
Outline: as §2

DU-4475 [19] = test: as above
Outline: as §2

MDA-MB-468 [20] = test: as above
Outline: as §2

Structure (SMILES)	drug sensitivity score (CAL-85-1 [1])	drug sensitivity score (Hs578T [2])	drug sensitivity score (CAL-148 [3])	drug sensitivity score (MFM-223 [4])	drug sensitivity score (HDQ-P1 [5])	drug sensitivity score (MDA-MB-453 [6])	drug sensitivity score (HCC1599 [7])	drug sensitivity score (CAL-120 [8])	drug sensitivity score (SK-BR-3)	drug sensitivity score (DU-4475 [9])	drug sensitivity score (MDA-MB-468 [10])	drug sensitivity score (CAL-85-1 [11])	drug sensitivity score (Hs578T [12])	drug sensitivity score (HCC1143)	drug sensitivity score (CAL-148 [13])	drug sensitivity score (MDA-MB-436)	drug sensitivity score (BT-474)	drug sensitivity score (MFM-223 [14])	drug sensitivity score (HDQ-P1 [15])	drug sensitivity score (MCF-10A)	drug sensitivity score (CAL-51)	drug sensitivity score (MDA-MB-453 [16])	drug sensitivity score (HCC1599 [17])	drug sensitivity score (CAL-120 [18])	drug sensitivity score (DU-4475 [19])	drug sensitivity score (MDA-MB-468 [20])
COc1c(C)cnc(Cn2cnc3c(Cl)nc(N)nc32)c1C [BIIB021]	13.6	12.9	19.3	18.6	12.8	24.8	8.11	23.5	26.8	22	14.4	14.7	8.9	11.5	15.8	13.3	12.4	13.2	15.2	15.5	17.2	16.2	10.4	10.1	17.8	12.7
O=C(c1ccc(OCCN2CCCCC2)cc1)c1c(-c2ccc(O)cc2)sc2cc(O)ccc12 [Raloxifene]	0	0	0	0	0	1.25	0	0	0	0	0	1.62	0	0	0	0	0.666	1.56	0	0	0	0	1.37	0	0	2.72
O=c1[nH]cc(F)c(=O)[nH]1 [Fluorouracil]	5.28	0	4.79	0	0	1.33	1.41	2.97	8.26	1.34	0.272	8.63	0	0	0	3.61	0	0	0	0	0	0	0	0	0	0
COc1ncc(-c2ccc3nccc(-c4ccnnc4)c3c2)cc1NS(=O)(=O)c1ccc(F)cc1F	16.8	15.1	17.3	20.6	21.1	25.7	17	16.3	25	10.8	14.2	16.4	14	13.3	12.2	11.6	11.2	14.3	19.4	17.5	15.8	19.4	9.77	13	7.12	13.9
Cn1cnc2c(F)c(Nc3ccc(Br)cc3F)c(C(=O)NOCCO)cc21 [MEK-162]	0	0	0	0	0	0	2.32	0	0	16	0	0	0	0	0	0	2.42	0	5.43	13.3	0	0	0	0.188	12.5	0
CN1CCN(c2ccc3nc(-c4c(N)c5c(F)cccc5[nH]c4=O)[nH]c3c2)CC1 [Dovitinib]	0	0	0	0	0	0	0	0	0	0	0	0	0	0	0	0	0	0	0	0	0	0	0	0.000114	0	0
CCCC(CCC)C(=O)O [Valproic acid]	0	0	0	0	0	0	0	0	0	0	0	0	0	0	0	0	0	0	0	0	1.6	1.51	0	0	0	0
C[C@@]1(C(=O)Nc2ccc(F)nc2)CCCN1c1nc(Nc2cc(C3CC3)n[nH]2)c2cccn2n1	10.6	5.68	6.09	10.1	16	5.98	11.5	8.33	5.88	9.27	7.88	10.7	3.38	6.03	0	7.17	9.15	10.2	15.8	25	9.26	0	5.62	10.3	5.67	16.4
COC1=C2C[C@@H](C)C[C@H](OC)[C@H](O)[C@@H](C)/C=C(\C)[C@H](OC(N)=O)[C@@H](OC)/C=C\C=C(/C)C(=O)NC(=CC1=O)C2=O [Geldanamycin]	16.6	19.2	18.2	21.8	20.1	23	14.7	25.7	25.2	22.5	24.1	6	3.07	2.36	1.87	8.77	4.34	11.3	4	3.98	5.12	3.9	1.53	2.21	6.88	4.27
